≈ marks a conversion by molar mass, not a printed value.
Tests used:
[1] = system: Staphylococcus aureus; test: Antibacterial activity against Staphylococcus aureus ATCC 29213 by CLSI M07-A8 protocol based microdilution method; type: functional
[2] = system: Staphylococcus aureus; test: Antibacterial activity against methicillin-resistant Staphylococcus aureus SA86 by CLSI M07-A8 protocol based microdilution method; type: functional

| Structure (SMILES) | MIC [1] [µg/mL] | MIC [2] [µg/mL] |
| --- | --- | --- |
| CC(C)CCC[C@@H]1CC(=O)N[C@@H](CO)C(=O)N[C@H](CC(N)=O)C(=O)N[C@@H](CO)C(=O)NCC(=O)N(C)[C@H](Cc2ccccc2)C(=O)N[C@@H](CC(C)C)C(=O)N[C@H](CCCN)C(=O)N[C@@H](CCC(=O)O)C(=O)N[C@H](CC(N)=O)C(=O)N[C@H](C)C(=O)N[C@H](CCCN)C(=O)N(C)[C@@H](C(C)C)C(=O)O1 | ≥ 32 | ≥ 32 |
| CC(C)CCC[C@@H]1CC(=O)N[C@@H](CO)C(=O)N[C@H](CC(N)=O)C(=O)N[C@@H](CO)C(=O)NCC(=O)N(C)[C@H](Cc2ccccc2)C(=O)N[C@@H](C)C(=O)N[C@H](CCCN)C(=O)N[C@@H](CCC(=O)O)C(=O)N[C@H](CC(N)=O)C(=O)N[C@H](Cc2c[nH]c3ccccc23)C(=O)N[C@H](CCCN)C(=O)N(C)[C@@H](C(C)C)C(=O)O1 | ≥ 32 | ≥ 32 |
| CC(C)CCC[C@@H]1CC(=O)N[C@@H](CO)C(=O)N[C@H](CC(N)=O)C(=O)N[C@@H](CO)C(=O)NCC(=O)N(C)[C@H](Cc2ccccc2)C(=O)N[C@@H](CC(C)C)C(=O)N[C@H](CCCN)C(=O)N[C@@H](CCC(=O)O)C(=O)N[C@H](C)C(=O)N[C@H](Cc2c[nH]c3ccccc23)C(=O)N[C@H](CCCN)C(=O)N(C)[C@@H](C(C)C)C(=O)O1 | 2 (≈ 1.33 µM) | 1 (≈ 0.665 µM) |
| CC(C)CCC[C@@H]1CC(=O)N[C@@H](CCCCN)C(=O)N[C@H](CC(N)=O)C(=O)N[C@@H](CO)C(=O)NCC(=O)N(C)[C@H](Cc2ccccc2)C(=O)N[C@@H](CC(C)C)C(=O)N[C@H](CCCN)C(=O)N[C@@H](CCC(=O)O)C(=O)N[C@H](CC(N)=O)C(=O)N[C@H](Cc2c[nH]c3ccccc23)C(=O)N[C@H](CCCN)C(=O)N(C)[C@@H](C(C)C)C(=O)O1 | 2 (≈ 1.26 µM) | 2 (≈ 1.26 µM) |
| CC(C)CCC[C@@H]1CC(=O)N[C@@H](CO)C(=O)N[C@H]([C@H](O)C(N)=O)C(=O)N[C@@H](CO)C(=O)NCC(=O)N(C)[C@H](Cc2ccccc2)C(=O)N[C@@H](CC(C)C)C(=O)N[C@H](CCCN)C(=O)N[C@@H](CCC(=O)O)C(=O)N[C@H](CC(N)=O)C(=O)N[C@H](Cc2c[nH]c3ccccc23)C(=O)N[C@H](CCCN)C(=O)N(C)[C@@H](C(C)C)C(=O)O1 | 1 (≈ 0.64 µM) | 1 (≈ 0.64 µM) |
| CC(C)CCC[C@@H]1CC(=O)N[C@@H](CO)C(=O)N[C@H](CCCCN)C(=O)N[C@@H](CO)C(=O)NCC(=O)N(C)[C@H](Cc2ccccc2)C(=O)N[C@@H](CC(C)C)C(=O)N[C@H](CCCN)C(=O)N[C@@H](CCC(=O)O)C(=O)N[C@H](CC(N)=O)C(=O)N[C@H](Cc2c[nH]c3ccccc23)C(=O)N[C@H](CCCN)C(=O)N(C)[C@@H](C(C)C)C(=O)O1 | 2 (≈ 1.28 µM) | 1 (≈ 0.641 µM) |
| CC(C)CCC[C@@H]1CC(=O)N[C@@H](CO)C(=O)N[C@H](C)C(=O)N[C@@H](CO)C(=O)NCC(=O)N(C)[C@H](Cc2ccccc2)C(=O)N[C@@H](CC(C)C)C(=O)N[C@H](CCCN)C(=O)N[C@@H](CCC(=O)O)C(=O)N[C@H](CC(N)=O)C(=O)N[C@H](Cc2c[nH]c3ccccc23)C(=O)N[C@H](CCCN)C(=O)N(C)[C@@H](C(C)C)C(=O)O1 | 1 (≈ 0.665 µM) | 2 (≈ 1.33 µM) |
| CC(C)CCC[C@@H]1CC(=O)N[C@@H](CO)C(=O)N[C@H](CC(N)=O)C(=O)N[C@@H](CO)C(=O)NCC(=O)N[C@H](C)C(=O)N[C@@H](CC(C)C)C(=O)N[C@H](CCCN)C(=O)N[C@@H](CCC(=O)O)C(=O)N[C@H](CC(N)=O)C(=O)N[C@H](Cc2c[nH]c3ccccc23)C(=O)N[C@H](CCCN)C(=O)N(C)[C@@H](C(C)C)C(=O)O1 | ≥ 32 | ≥ 32 |
| CC(C)CCC[C@@H]1CC(=O)N[C@@H](CO)C(=O)N[C@H](CC(N)=O)C(=O)N[C@@H](CO)C(=O)NCC(=O)N(C)[C@H](Cc2ccccc2)C(=O)N[C@@H](CC(C)C)C(=O)N[C@H](CCCN)C(=O)N[C@@H](CCC(=O)O)C(=O)N[C@H](CC(N)=O)C(=O)N[C@H](Cc2c[nH]c3ccccc23)C(=O)N[C@H](CCCN)C(=O)N(C)[C@@H](C(C)C)C(=O)O1 | 1 (≈ 0.647 µM) | 1 (≈ 0.647 µM) |
| CC(C)CCC[C@@H]1CC(=O)N[C@@H](CO)C(=O)N[C@H](CC(N)=O)C(=O)N[C@@H](CO)C(=O)NCC(=O)N(C)[C@H](Cc2ccccc2)C(=O)N[C@@H](CC(C)C)C(=O)N[C@H](CCCNC(=N)N)C(=O)N[C@@H](CCC(=O)O)C(=O)N[C@H](CC(N)=O)C(=O)N[C@H](Cc2c[nH]c3ccccc23)C(=O)N[C@H](CCCN)C(=O)N(C)[C@@H](C(C)C)C(=O)O1 | 1 (≈ 0.629 µM) | 2 (≈ 1.26 µM) |
| CC(C)CCC[C@@H]1CC(=O)N[C@@H](CO)C(=O)N[C@H](CC(N)=O)C(=O)N[C@@H](CCCCN)C(=O)NCC(=O)N(C)[C@H](Cc2ccccc2)C(=O)N[C@@H](CC(C)C)C(=O)N[C@H](CCCN)C(=O)N[C@@H](CCC(=O)O)C(=O)N[C@H](CC(N)=O)C(=O)N[C@H](Cc2c[nH]c3ccccc23)C(=O)N[C@H](CCCN)C(=O)N(C)[C@@H](C(C)C)C(=O)O1 | 4 (≈ 2.52 µM) | 2 (≈ 1.26 µM) |
| CC(C)CCC[C@@H]1CC(=O)N[C@@H](CO)C(=O)N[C@H](CC(N)=O)C(=O)N[C@@H](CO)C(=O)NCC(=O)N(C)[C@H](Cc2ccccc2)C(=O)N[C@@H](CCCCN)C(=O)N[C@H](CCCN)C(=O)N[C@@H](CCC(=O)O)C(=O)N[C@H](CC(N)=O)C(=O)N[C@H](Cc2c[nH]c3ccccc23)C(=O)N[C@H](CCCN)C(=O)N(C)[C@@H](C(C)C)C(=O)O1 | ≥ 32 | ≥ 32 |
| CC(C)CCC[C@@H]1CC(=O)N[C@@H](CO)C(=O)N[C@H](CC(N)=O)C(=O)N[C@@H](C)C(=O)NCC(=O)N(C)[C@H](Cc2ccccc2)C(=O)N[C@@H](CC(C)C)C(=O)N[C@H](CCCN)C(=O)N[C@@H](CCC(=O)O)C(=O)N[C@H](CC(N)=O)C(=O)N[C@H](Cc2c[nH]c3ccccc23)C(=O)N[C@H](CCCN)C(=O)N(C)[C@@H](C(C)C)C(=O)O1 | 2 (≈ 1.31 µM) | 2 (≈ 1.31 µM) |
| CC(C)CCC[C@@H]1CC(=O)N[C@@H](CO)C(=O)N[C@H](CC(N)=O)C(=O)N[C@@H](CO)C(=O)NCC(=O)N(C)[C@H](Cc2ccccc2)C(=O)N[C@@H](CC(C)C)C(=O)N[C@H](C)C(=O)N[C@@H](CCC(=O)O)C(=O)N[C@H](CC(N)=O)C(=O)N[C@H](Cc2c[nH]c3ccccc23)C(=O)N[C@H](CCCN)C(=O)N(C)[C@@H](C(C)C)C(=O)O1 | ≥ 32 | ≥ 32 |
| CC(C)CCC[C@@H]1CC(=O)N[C@@H](CO)C(=O)N[C@H](CC(N)=O)C(=O)N[C@@H](CO)C(=O)NCC(=O)N(C)[C@H](Cc2ccccc2)C(=O)N[C@@H](CC(C)C)C(=O)N[C@H](CCCN)C(=O)N[C@@H](CCC(=O)O)C(=O)N[C@H](CC(N)=O)C(=O)N[C@H](Cc2c[nH]c3ccccc23)C(=O)N[C@H](CCCN)C(=O)N[C@@H](C(C)C)C(=O)O1 | ≥ 32 | ≥ 32 |
| CC(C)CCC[C@@H]1CC(=O)N[C@@H](CO)C(=O)N[C@H](CC(N)=O)C(=O)N[C@@H](CO)C(=O)NCC(=O)N(C)[C@H](Cc2ccccc2)C(=O)N[C@@H](CC(C)C)C(=O)N[C@H](CCCN)C(=O)N[C@@H](CCCCN)C(=O)N[C@H](CC(N)=O)C(=O)N[C@H](Cc2c[nH]c3ccccc23)C(=O)N[C@H](CCCN)C(=O)N(C)[C@@H](C(C)C)C(=O)O1 | 2 (≈ 1.29 µM) | 1 (≈ 0.647 µM) |
| CC(C)CCC[C@@H]1CC(=O)N[C@@H](CO)C(=O)N[C@H](CC(N)=O)C(=O)N[C@@H](CO)C(=O)NCC(=O)N(C)[C@H](Cc2ccccc2)C(=O)N[C@@H](CC(C)C)C(=O)N[C@H](CCCN)C(=O)N[C@@H](C)C(=O)N[C@H](CC(N)=O)C(=O)N[C@H](Cc2c[nH]c3ccccc23)C(=O)N[C@H](CCCN)C(=O)N(C)[C@@H](C(C)C)C(=O)O1 | 1 (≈ 0.672 µM) | 0.5 (≈ 0.336 µM) |
| CC(C)CCC[C@@H]1CC(=O)N[C@@H](CO)C(=O)N[C@H](CC(N)=O)C(=O)N[C@@H](CO)C(=O)N[C@@H](C)C(=O)N(C)[C@H](Cc2ccccc2)C(=O)N[C@@H](CC(C)C)C(=O)N[C@H](CCCN)C(=O)N[C@@H](CCC(=O)O)C(=O)N[C@H](CC(N)=O)C(=O)N[C@H](Cc2c[nH]c3ccccc23)C(=O)N[C@H](CCCN)C(=O)N(C)[C@@H](C(C)C)C(=O)O1 | ≥ 32 | ≥ 32 |
| CC(C)CCC[C@@H]1CC(=O)N[C@@H](CO)C(=O)N[C@H](CC(N)=O)C(=O)N[C@@H](CO)C(=O)NCC(=O)N(C)[C@H](Cc2ccccc2)C(=O)N[C@@H](CC(C)C)C(=O)N[C@H](CCCN)C(=O)N[C@@H](CCC(=O)O)C(=O)N[C@H](CC(N)=O)C(=O)N[C@H](Cc2c[nH]c3ccccc23)C(=O)N[C@H](C)C(=O)N(C)[C@@H](C(C)C)C(=O)O1 | ≥ 32 | ≥ 32 |
| CC(C)CCC[C@@H]1CC(=O)N[C@@H](CO)C(=O)N[C@H](CC(N)=O)C(=O)N[C@@H](CO)C(=O)NCC(=O)N(C)[C@H](Cc2ccccc2)C(=O)N[C@@H](CC(C)C)C(=O)N[C@H](Cc2c[nH]cn2)C(=O)N[C@@H](CCC(=O)O)C(=O)N[C@H](CC(N)=O)C(=O)N[C@H](Cc2c[nH]c3ccccc23)C(=O)N[C@H](CCCN)C(=O)N(C)[C@@H](C(C)C)C(=O)O1 | 2 (≈ 1.27 µM) | 2 (≈ 1.27 µM) |
| CC(C)CCC[C@@H]1CC(=O)N[C@@H](CO)C(=O)N[C@H](CC(N)=O)C(=O)N[C@@H](CO)C(=O)NCC(=O)N(C)[C@H](Cc2ccccc2)C(=O)N[C@@H](CC(C)C)C(=O)N[C@H](CCCN)C(=O)N[C@@H](CCC(=O)O)C(=O)N[C@H](CC(N)=O)C(=O)N[C@H](Cc2c[nH]c3ccccc23)C(=O)N[C@H](CCCCN)C(=O)N(C)[C@@H](C(C)C)C(=O)O1 | 1 (≈ 0.641 µM) | 2 (≈ 1.28 µM) |
| CC(C)CCC[C@@H]1CC(=O)N[C@@H](CO)C(=O)N[C@H](CC(N)=O)C(=O)N[C@@H](CO)C(=O)NCC(=O)N(C)[C@H](Cc2ccccc2)C(=O)N[C@@H](CC(C)C)C(=O)N[C@H](CCCN)C(=O)N[C@@H](CCC(=O)O)C(=O)N[C@H](CC(N)=O)C(=O)N[C@H](Cc2c[nH]c3ccccc23)C(=O)N[C@H](Cc2c[nH]cn2)C(=O)N(C)[C@@H](C(C)C)C(=O)O1 | 2 (≈ 1.27 µM) | 2 (≈ 1.27 µM) |
| CC(C)CCC[C@@H]1CC(=O)N[C@@H](CO)C(=O)N[C@H](CC(N)=O)C(=O)N[C@@H](CO)C(=O)NCC(=O)N(C)[C@H](Cc2ccccc2)C(=O)N[C@@H](CC(C)C)C(=O)N[C@H](CCCN)C(=O)N[C@@H](CCC(=O)O)C(=O)N[C@H](CC(N)=O)C(=O)N[C@H](Cc2c[nH]c3ccccc23)C(=O)N[C@H](CCCNC(=N)N)C(=O)N(C)[C@@H](C(C)C)C(=O)O1 | 1 (≈ 0.629 µM) | 2 (≈ 1.26 µM) |
